Assay: xn = mol fraction of the nth substance listed
Conditions: 101 kPa, Liquid; for speed of sound: Sing-around technique in a fixed-path interferometer; for mass density: Vibrating tube method; for viscosity: Falling or rolling sphere viscometry

CC12CCC(CC1)C(C)(C)O2 [1,3,3-trimethyl-2-oxabicyclo[2.2.2]octane] + CCCCCCCCCC
Conditions	mass density, 298.15 K [kg/m3]	mass density, 318.15 K [kg/m3]	mass density, 338.15 K [kg/m3]	speed of sound, 298.15 K [m/s]	speed of sound, 318.15 K [m/s]	speed of sound, 338.15 K [m/s]	viscosity, 318.15 K [mPa·s]	viscosity, 338.15 K [mPa·s]
x1 = 0.1066	743.66	728.29	712.7	1235.6	1157.5	1081.8	0.71	0.58
x1 = 0.2007	759.71	744.21	728.49	1237	1159.5	1083.9	0.75	0.6
x1 = 0.2965	776.57	760.92	745.06	1239.1	1162	1087.1	0.81	0.64
x1 = 0.4063	796.58	780.75	764.73	1242.3	1165.5	1091.2	0.87	0.69
x1 = 0.5005	814.39	798.4	782.2	1245.7	1169.1	1094.9	0.93	0.73
x1 = 0.5959	833.07	816.88	800.51	1250	1173.4	1099.3	1.02	0.79
x1 = 0.7007	854.34	837.92	821.36	1255.6	1179	1105.3	1.14	0.88
x1 = 0.7989	875.07	858.42	841.62	1261.9	1184.9	1111.3	1.29	0.98
x1 = 0.8956	896.24	879.33	862.32	1269.3	1192.3	1118.5	1.48	1.1
x1 = 1	920.04	902.84	885.57	1278.4	1201	1126.7	1.73	1.27

Source: the NIST ThermoML archive (doi:10.1016/j.fluid.2016.08.035)
